Test results published in ChEMBL document CHEMBL5113447, “Synthesis of baicalein derivatives and evaluation of their antiviral activity against arboviruses” (Bioorg Med Chem Lett, 2022).

Columns and labels:
Chikungunya virus [1] = test: Antiviral activity against CHIKV infected in human Huh-7 cells assessed as inhibition of viral infection by measuring EGFP-positive cells measured 24 hrs post infection by fluorescent microscopic analysis; type: functional, organism-based; conditions: Huh-7, 24 h
Zika virus [2] = test: Antiviral activity against ZIKV infected in human Huh-7 cells assessed as inhibition of viral infection measured 24 hrs post infection by immunofluorescent assay; type: functional, organism-based; conditions: Huh-7, 24 h
West Nile virus [3] = test: Antiviral activity against WNV infected in human Huh-7 cells assessed as inhibition of viral infection measured 24 hrs post infection by immunofluorescent assay; type: functional, organism-based; conditions: Huh-7, 24 h
[4] = Cytotoxicity against human Huh-7 cells assessed as reduction in cell viability incubated for 24 hrs by CCK-8 assay; type: toxicity, cell-based
West Nile virus [5] = test: Potency index, ratio of baicalein IC50 to test compound IC50 for antiviral activity against WNV infected in human Huh-7 cells assessed as inhibition of viral infection measured 24 hrs post infection by immunofluorescent assay; type: functional
Zika virus [6] = test: Potency index, ratio of baicalein IC50 to test compound IC50 for antiviral activity against ZIKV infected in human Huh-7 cells assessed as inhibition of viral infection measured 24 hrs post infection by immunofluorescent assay; type: functional
Chikungunya virus [7] = test: Potency index, ratio of baicalein IC50 to test compound IC50 for antiviral activity against CHIKV infected in human Huh-7 cells assessed as inhibition of viral infection by measuring EGFP-positive cells measured 24 hrs post infection by fluorescent microscopic analysis; type: functional
West Nile virus [8] = test: Antiviral activity against WNV infected in human Huh-7 cells assessed as inhibition of viral infection at 20 uM measured 24 hrs post infection by immunofluorescent assay relative to control; type: functional
Zika virus [9] = test: Antiviral activity against ZIKV infected in human Huh-7 cells assessed as inhibition of viral infection at 20 uM measured 24 hrs post infection by immunofluorescent assay relative to control; type: functional

| Compound | IC50 (Chikungunya virus [1]) [µM] | IC50 (Zika virus [2]) [µM] | IC50 (West Nile virus [3]) [µM] | CC50 at 24 h [4] [µM] | Ratio IC50 (West Nile virus [5]) | Ratio IC50 (Zika virus [6]) | Ratio IC50 (Chikungunya virus [7]) | inhibition at 20 µM (West Nile virus [8]) [%] | inhibition at 20 µM (Zika virus [9]) [%] |
| --- | --- | --- | --- | --- | --- | --- | --- | --- | --- |
| O=c1cc(-c2ccc(N3CCN(c4cccc(Cl)c4)CC3)cc2)oc2cc(O)c(O)c(O)c12 | 4.3 | 5.7 | 5.1 | > 100 |  |  |  |  |  |
| Oc1c(O)c(O)c2c(=S)cc(-c3ccccc3)oc2c1-c1ccc(C(F)(F)F)cc1 | 2.7 | 3.8 | 2.1 | > 100 | >6 | >5 | >5 |  |  |
| O=c1cc(-c2ccccc2)oc2c(-c3ccc(OC(F)(F)F)cc3)c(O)c(O)c(O)c12 | 5.2 | 8.3 | 6.4 | > 100 |  |  |  |  |  |
| Oc1cc2oc(-c3ccccc3)cc(=S)c2c(O)c1O | 7.6 |  |  | > 100 |  |  |  | < 50 | < 50 |
| Cc1ccc(-c2c(O)c(O)c(O)c3c(=O)cc(-c4ccccc4)oc23)cc1 | 7.9 |  |  | > 100 |  |  |  | < 50 | < 50 |
| O=c1cc(-c2ccccc2)oc2c(-c3ccc(F)cc3)c(O)c(O)c(O)c12 | 4.2 | 2.5 | 3.1 | > 100 |  | >5 |  |  |  |
| O=c1cc(-c2ccc(Nc3ccc(F)cc3)cc2)oc2cc(O)c(O)c(O)c12 | 4.8 | 6.9 | 4.5 | > 100 |  |  |  |  |  |
| O=c1cc(-c2ccccc2)oc2c(-c3ccccc3)c(O)c(O)c(O)c12 | 5.8 | 5.8 | 3.1 | 86.3 |  |  |  |  |  |
| COc1c(OC)c(OC)c2c(=O)cc(-c3ccccc3)oc2c1-c1ccc(OC(F)(F)F)cc1 | 17.8 |  |  | > 100 |  |  |  | < 50 | < 50 |
| O=c1cc(-c2ccccc2)oc2c(-c3cccc(F)c3)c(O)c(O)c(O)c12 | 4.3 | 3.5 | 2.9 | > 100 |  | >5 |  |  |  |
| COc1cc2oc(-c3ccc(Nc4ccc(F)cc4)cc3)cc(=O)c2c(OC)c1OC | 9.7 |  |  | 77.6 |  |  |  | < 50 | < 50 |
| O=c1cc(-c2ccccc2)oc2c(-c3cc(F)cc(F)c3)c(O)c(O)c(O)c12 | 8.6 |  |  | > 100 |  |  |  | < 50 | < 50 |
| Cc1cccc(-c2c(O)c(O)c(O)c3c(=O)cc(-c4ccccc4)oc23)c1 | 8.7 |  |  | > 100 |  |  |  | < 50 | < 50 |
| O=c1cc(-c2ccc(N3CCN(c4ccc(O)cc4)CC3)cc2)oc2cc(O)c(O)c(O)c12 | 5.9 | 6.9 | 6.6 | > 100 |  |  |  |  |  |
| CN1CCN(c2ccc(-c3cc(=O)c4c(O)c(O)c(O)cc4o3)cc2)CC1 | 8.9 |  |  | > 100 |  |  |  | < 50 | < 50 |
| Oc1c(O)c(O)c2c(=S)cc(-c3ccccc3)oc2c1-c1ccc(F)cc1 | 4.7 | 7.7 | 6.2 | > 100 |  |  |  |  |  |
| O=c1cc(-c2ccc(Nc3ccc(Br)cc3)cc2)oc2cc(O)c(O)c(O)c12 | 5.2 | 6.7 | 4.1 | > 100 |  |  |  |  |  |
| COc1cc2oc(-c3ccccc3)cc(=S)c2c(OC)c1OC | 9.7 |  |  | > 100 |  |  |  | < 50 | < 50 |
| Oc1c(O)c(O)c2c(=S)cc(-c3ccccc3)oc2c1-c1cccc(F)c1 | 9.7 |  |  | > 100 |  |  |  | < 50 | < 50 |
| O=c1cc(-c2ccc(Nc3ccc(Cl)cc3)cc2)oc2cc(O)c(O)c(O)c12 | 3.4 | 1.9 | 2.4 | > 100 | >6 | >5 | >5 |  |  |
| COc1cc2oc(-c3ccc(N4CCN(C)CC4)cc3)cc(=O)c2c(OC)c1OC | 11.5 |  |  | > 100 |  |  |  | < 50 | < 50 |
| O=c1cc(-c2ccccc2)oc2cc(O)c(O)c(O)c12 [BAICALEIN] | 16.9 | 19.6 | 14.5 | > 100 |  |  |  |  |  |
